# According to BindingDB's records for patent US12492186 (Bristol Myers Squibb, 2025):
# Target: T1, Interleukin-1 receptor-associated kinase 4 (Homo sapiens, UniProt Q9NWZ3)
# T1 sequence (Q9NWZ3 whole entry): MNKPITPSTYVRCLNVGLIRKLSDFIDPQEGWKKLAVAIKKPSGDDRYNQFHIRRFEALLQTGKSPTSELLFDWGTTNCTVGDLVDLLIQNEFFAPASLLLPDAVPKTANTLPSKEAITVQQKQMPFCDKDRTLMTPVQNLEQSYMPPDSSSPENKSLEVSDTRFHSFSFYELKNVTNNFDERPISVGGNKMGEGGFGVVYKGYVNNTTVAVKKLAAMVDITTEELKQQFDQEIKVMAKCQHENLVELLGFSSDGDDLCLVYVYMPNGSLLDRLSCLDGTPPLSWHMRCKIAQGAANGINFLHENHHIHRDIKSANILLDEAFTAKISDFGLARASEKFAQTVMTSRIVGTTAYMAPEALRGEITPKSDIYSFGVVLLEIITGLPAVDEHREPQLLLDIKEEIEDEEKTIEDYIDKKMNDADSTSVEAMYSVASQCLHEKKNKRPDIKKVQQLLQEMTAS
# Assay: IRAK4 Inhibition Assay
# Protocol: The assays were performed in U-bottom 384-well plates. The final assay volume was 30 μL prepared from 15 μL additions of enzyme and substrates (fluoresceinated peptide and ATP) and test compounds in assay buffer (20 mM HEPES pH 7.2, 10 mM MgCl2, 0.015% Brij 35 and 4 mM DTT). The reaction was initiated by the combination of IRAK4 with substrates and test compounds. The reaction mixture was incubated at room temperature for 60 min. and terminated by adding 45 μL of 35 mM EDTA to each sample. The reaction mixture was analyzed on the Caliper LABCHIP 3000 (Caliper, Hopkinton, MA) by electrophoretic separation of the fluorescent substrate and phosphorylated product. Inhibition data were calculated by comparison to no enzyme control reactions for 100% inhibition and vehicle-only reactions for 0% inhibition. The final concentrations of reagents in the assays are ATP, 500 μM; FL-IPTSPITTTYFFFKKK peptide 1.5 μM; IRAK4, 0.6 nM; and DMSO, 1.6%.
row,SMILES,IC50
1,"CC(O)CCNC(=O)c1cnc2ccc(-c3cn[nH]c3)cc2c1NCC(F)F (stereo not drawn) [US12492186, Example 65]",15.2 nM
2,"CC(O)CCNC(=O)c1cnc2ccc(-c3cn[nH]c3)cc2c1NC1CC(F)(F)C1 (stereo not drawn) [US12492186, Example 54]",17.6 nM
3,"CC(C)Nc1c(-c2cc(C3CCCCN3)no2)cnc2ccc(-c3cn[nH]c3)cc12 (stereo not drawn) [US12492186, Example 128]",4.8 nM
